21 molecules from patent US8765730B2 (Hoffmann-La Roche Inc, priority 2010, dated 2014) can be followed below.

The structures appear in SMILES notation.

In the assay the target is T1, human GPBAR1 receptor (Homo sapiens, UniProt Q8TDU6).
T1 construct: expressed in transfected cells
T1 sequence (Q8TDU6 1-330): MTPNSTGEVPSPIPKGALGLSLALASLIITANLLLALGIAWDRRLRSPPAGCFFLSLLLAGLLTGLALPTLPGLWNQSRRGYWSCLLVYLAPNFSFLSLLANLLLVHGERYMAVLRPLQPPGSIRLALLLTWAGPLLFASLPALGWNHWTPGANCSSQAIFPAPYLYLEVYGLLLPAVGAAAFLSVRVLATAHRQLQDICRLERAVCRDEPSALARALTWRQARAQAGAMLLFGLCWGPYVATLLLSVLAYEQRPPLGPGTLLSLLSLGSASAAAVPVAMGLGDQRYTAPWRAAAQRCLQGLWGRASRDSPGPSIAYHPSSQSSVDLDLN
Put plainly: functional cAMP assay in CHO-dhfr(minus) cells expressing human GPBAR1 receptors. The assay is classed as cell-based. Particulars: human EC50, functional cAMP assay, 30 min at 30° C. In a few lines:
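Agonist cAMP read-out: stable GPBAR1 CHO-dhfr− clone, 30 min compound exposure at 30° C following 30 min IBMX (1 mM) preincubation in Krebs Ringer bicarbonate. Time-resolved energy-transfer detection gives EC50; parental CHO cells serve as counter-screen.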
For the molecule `Cn1cc(/C(CC(c2ccc(C(=O)NCCO)cc2)c2ccc(Cl)cc2F)=N/O)ccc1=O` (stereo not drawn) [Example 311, 4-[1-(4-Chloro-2-fluoro-phenyl)-3-[(E)-hydroxyimino]-3-(1-methyl-6-oxo-1,6-dihydro-pyridin-3-yl)-propyl]-N-(2-hydroxy-ethyl)-benzamide], the response was half-maximal at 253 nM (EC50).

Take `Cc1cc(C(CC(c2ccc(-c3ccc(C(=O)O)c(F)c3)cc2)c2ccccc2C)=NO)ccn1` (racemic) [Example 112, 3-Fluoro-4′-[3-[hydroxyimino]-3-(2-methyl-pyridin-4-yl)-1-o-tolyl-propyl]-biphenyl-4-carboxylic acid]: the EC50 (as a rule, the concentration that produces a half-maximal response) is 16 nM.

The molecule `Cc1cc(/C(C[C@@H](c2ccc(-c3ccc(C(=O)O)cc3)cc2)c2ccc(F)cc2C)=N/O)ccn1` (single isomer, unassigned) [Example 398, (−)-4′-[1-(4-Fluoro-2-methyl-phenyl)-3-[(E)-hydroxyimino]-3-(2-methyl-pyridin-4-yl)-propyl]-biphenyl-4-carboxylic acid; compound with triethylamine 1:0.75] returned an EC50 of 3 nM.

In the case of `Cc1ccccc1C(CC(=NO)c1cc(F)ncc1Cl)c1ccc(Br)cc1` (racemic) [Example 121, 3-(4-Bromo-phenyl)-1-(5-chloro-2-fluoro-pyridin-4-yl)-3-o-tolyl-propan-1-one oxime], it took 24 nM to reach a half-maximal effect (EC50).

`Cc1ccccc1C(C/C(=N\O)c1ccnc2cc(Cl)ccc12)c1ccc(Br)cc1` (stereo not drawn) [Example 157, (E)-3-(4-Bromo-phenyl)-1-(7-chloro-quinolin-4-yl)-3-o-tolyl-propan-1-one oxime] registered an EC50 of 3640 nM.

`Cc1cc(/C(C[C@@H](c2ccc(-c3ccc(C(=O)O)cc3)cc2)c2ccc(Cl)cc2C)=N/O)ccn1` [Example 296, 4′-[(S)-1-(4-Chloro-2-methyl-phenyl)-3-[(E)-hydroxyimino]-3-(2-methyl-pyridin-4-yl)-propyl]-biphenyl-4-carboxylic acid]: the EC50 is 32 nM.

In the case of `Cc1cc(Cl)ccc1C(C/C(=N\O)c1ccc(=O)n(CCO)c1)c1ccc(S(C)(=O)=O)cc1` (stereo not drawn) [Example 342, (E)-5-(3-(4-Chloro-2-methylphenyl)-1-(hydroxyimino)-3-(4-(methylsulfonyl)phenyl)-propyl)-1-(2-hydroxyethyl)pyridin-2(1H)-one], a half-maximal response (EC50) required 993 nM.

Consider `CNC(=O)c1ccc([C@@H](C/C(=N\O)c2ccnc(C)c2)c2ccccc2C)cc1` [Example 278, 4-[(R)-3-[(E)-Hydroxyimino]-3-(2-methyl-pyridin-4-yl)-1-o-tolyl-propyl]-N-methyl-benzamide], for which the EC50 turned out to be 15 nM.

In turn, `Cc1cc(Cl)ccc1[C@H](C/C(=N\O)c1ccc(=O)n(C)c1)c1ccc(-c2ccc(S(N)(=O)=O)cc2)cc1` (single isomer, unassigned) [Example 413, (−)-4′-[1-(4-Chloro-2-methyl-phenyl)-3-[(E)-hydroxyimino]-3-(1-methyl-6-oxo-1,6-dihydro-pyridin-3-yl)-propyl]-biphenyl-4-sulfonic acid amide] returned an EC50 of 18 nM.

`Cc1cc(Cl)ccc1C(C/C(=N\O)c1ccc(=O)n(C)c1)c1ccc(NS(=O)(=O)C2CC2)cc1` (stereo not drawn) [Example 354, Cyclopropanesulfonic acid {4-[1-(4-chloro-2-methyl-phenyl)-3-[(E)-hydroxyimino]-3-(1-methyl-6-oxo-1,6-dihydro-pyridin-3-yl)-propyl]-phenyl}-amide] displayed an EC50 of 489 nM.

Molecule `Cc1ccccc1C(CC(=NO)c1cc(Cl)ncc1F)c1ccc(Br)cc1` (racemic) [Example 127, 3-(4-Bromo-phenyl)-1-(2-chloro-5-fluoro-pyridin-4-yl)-3-o-tolyl-propan-1-one oxime] returned an EC50 of 46 nM.

`Cc1cc(C(=O)O)ccc1-c1ccc([C@@H](C/C(=N\O)c2ccc(=O)n(C)c2)c2ccc(Cl)cc2F)cc1` (single isomer, unassigned) [Example 465, 4′-[(−)-1-(4-Chloro-2-fluoro-phenyl)-3-[(E)-hydroxyimino]-3-(1-methyl-6-oxo-1,6-dihydro-pyridin-3-yl)-propyl]-2-methyl-biphenyl-4-carboxylic acid]: a half-maximal effect (EC50) was put at 350 nM.

As to `CCCCC(C/C(=N\O)c1ccc(=O)n(C)c1)c1ccc(Br)cc1` (stereo not drawn) [Example 177, 5-{3-(4-Bromo-phenyl)-1-[(E)-hydroxyimino]-heptyl}-1-methyl-1H-pyridin-2-one], a half-maximal effect (EC50) was put at 256 nM.

Regarding `Cc1ccccc1C(C/C(=N\O)c1ccc(=O)n(C)c1)c1ccc(C(=O)N[C@@H](CO)C(C)C)cc1` (stereo partly drawn) [Example 305, N—((R)-1-hydroxy-3-methylbutan-2-yl)-4-((E)-3-(hydroxyimino)-3-(1-methyl-6-oxo-1,6-dihydropyridin-3-yl)-1-o-tolylpropyl)benzamide], it took 1630 nM to reach a half-maximal effect (EC50).

Molecule `Cn1cc(/C(CC(c2ccc(-c3ccc(C(=O)O)cc3)cc2)c2ccc(Cl)cc2F)=N/O)ccc1=O` (single isomer, unassigned; (+)) [Example 241, (+)-4′-[1-(4-Chloro-2-fluoro-phenyl)-3-[(E)-hydroxyimino]-3-(1-methyl-6-oxo-1,6-dihydro-pyridin-3-yl)-propyl]-biphenyl-4-carboxylic acid] gave an EC50 of 170 nM.

As to `Cc1cc(/C(C[C@H](c2ccc(N3CCC(C(=O)NCCS(=O)(=O)O)CC3)cc2)c2ccccc2C)=N/O)ccn1` [Example 370, (R,E)-2-(1-(4-(3-(hydroxyimino)-3-(2-methylpyridin-4-yl)-1-o-tolylpropyl)phenyl)-piperidine-4-carboxamido)ethanesulfonic acid], the EC50 was 1 nM.

As for `Cc1cc(C(CC(c2ccc(-c3ccc(C(=O)NCC(=O)O)cc3)cc2)c2ccccc2C)=NO)ccn1` (racemic) [Example 90, ({4′-[3-[Hydroxyimino]-3-(2-methyl-pyridin-4-yl)-1-o-tolyl-propyl]-biphenyl-4-carbonyl}-amino)-acetic acid], the midpoint of the response, the EC50, lay at 10 nM.

Molecule `Cn1cc(/C(C[C@H](c2ccc(-c3ccc(C(=O)O)c(F)c3)cc2)c2ccc(Cl)cc2F)=N/O)ccc1=O` (single isomer, unassigned) [Example 463, 4′-[(−)-1-(4-Chloro-2-fluoro-phenyl)-3-[(E)-hydroxyimino]-3-(1-methyl-6-oxo-1,6-dihydro-pyridin-3-yl)-propyl]-3-fluoro-biphenyl-4-carboxylic acid] came in with an EC50 of 154 nM.

Take `Cc1cc(/C(CC(c2ccc(-c3ccc(C(=O)O)cc3)cc2)c2ccccc2C(F)(F)F)=N/O)ccn1` (stereo not drawn) [Example 134, 4′-[3-[(E)-Hydroxyimino]-3-(2-methyl-pyridin-4-yl)-1-(2-trifluoromethyl-phenyl)-propyl]-biphenyl-4-carboxylic acid]: the EC50 is 20 nM.

The molecule `Cc1cc(Cl)ccc1C(C/C(=N\O)c1ccc(=O)n(C)c1)c1ccc(OS(C)(=O)=O)c(F)c1` (stereo not drawn) [Example 329, Methanesulfonic acid 4-[1-(4-chloro-2-methyl-phenyl)-3-[(E)-hydroxyimino]-3-(1-methyl-6-oxo-1,6-dihydro-pyridin-3-yl)-propyl]-2-fluoro-phenyl ester] gave a half-maximal effective concentration (EC50) of 62 nM.

Molecule `Cc1ccccc1C(C/C(=N\O)c1cc(Cl)ccc1Cl)c1ccc(Br)cc1` (single isomer, unassigned; (+)) [Example 50, (+)-(E)-3-(4-Bromo-phenyl)-1-(2,5-dichloro-phenyl)-3-o-tolyl-propan-1-one oxime] displayed an EC50 of 769 nM.
